Where “and” joins values, the source holds several entries; their conditions need not be identical. Equal entries are not always repeated.
Experiments:
Test in all cases: Kinase inhibition screen, cell-free 33P ATP assay at 10 μM
Format in all cases: biochemical
[1] = target: T1, 140 purified human kinases (Homo sapiens, UniProt P51955); details: NEK2a
T1 sequence (P51955 1-445): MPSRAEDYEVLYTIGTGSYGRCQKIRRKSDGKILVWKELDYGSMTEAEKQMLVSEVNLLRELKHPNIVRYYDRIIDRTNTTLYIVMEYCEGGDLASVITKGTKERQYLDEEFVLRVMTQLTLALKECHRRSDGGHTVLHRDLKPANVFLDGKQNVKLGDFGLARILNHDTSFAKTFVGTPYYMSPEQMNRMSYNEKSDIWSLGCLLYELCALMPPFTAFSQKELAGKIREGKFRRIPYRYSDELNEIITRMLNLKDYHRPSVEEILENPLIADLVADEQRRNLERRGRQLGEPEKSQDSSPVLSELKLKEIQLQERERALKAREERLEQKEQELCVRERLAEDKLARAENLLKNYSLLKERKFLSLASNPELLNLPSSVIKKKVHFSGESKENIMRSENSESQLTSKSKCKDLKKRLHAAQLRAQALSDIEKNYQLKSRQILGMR
Experimental: (§1) [L2Cu3]^6+ and [L2Zn3]^6+ were submitted to the MRC Protein Phosphorylation and Ubiquitination Unit International Centre for Kinase Profiling (University of Dundee) and tested in duplicate (at 10 μM) against a series of 140 purified human kinases in a cell-free kinase assay using ^33P ATP[55],[56]. The kinase gene IDs from the screen were then translated into common IDs (HGNC symbol) using biomaRt package[57],[58] in R[59] and R Studio[60] and used as input to the KinMap programme.

[2] = target: 140 purified human kinases (Homo sapiens, UniProt P50750)
Experimental: as §1

[3] = target: 140 purified human kinases (Homo sapiens, UniProt O43353)
Experimental: as §1

[4] = target: 140 purified human kinases (Homo sapiens, UniProt P49137)
Experimental: as §1

[5] = target: T2, 140 purified human kinases (Homo sapiens, UniProt Q9NZJ5)
T2 sequence (Q9NZJ5 30-1116): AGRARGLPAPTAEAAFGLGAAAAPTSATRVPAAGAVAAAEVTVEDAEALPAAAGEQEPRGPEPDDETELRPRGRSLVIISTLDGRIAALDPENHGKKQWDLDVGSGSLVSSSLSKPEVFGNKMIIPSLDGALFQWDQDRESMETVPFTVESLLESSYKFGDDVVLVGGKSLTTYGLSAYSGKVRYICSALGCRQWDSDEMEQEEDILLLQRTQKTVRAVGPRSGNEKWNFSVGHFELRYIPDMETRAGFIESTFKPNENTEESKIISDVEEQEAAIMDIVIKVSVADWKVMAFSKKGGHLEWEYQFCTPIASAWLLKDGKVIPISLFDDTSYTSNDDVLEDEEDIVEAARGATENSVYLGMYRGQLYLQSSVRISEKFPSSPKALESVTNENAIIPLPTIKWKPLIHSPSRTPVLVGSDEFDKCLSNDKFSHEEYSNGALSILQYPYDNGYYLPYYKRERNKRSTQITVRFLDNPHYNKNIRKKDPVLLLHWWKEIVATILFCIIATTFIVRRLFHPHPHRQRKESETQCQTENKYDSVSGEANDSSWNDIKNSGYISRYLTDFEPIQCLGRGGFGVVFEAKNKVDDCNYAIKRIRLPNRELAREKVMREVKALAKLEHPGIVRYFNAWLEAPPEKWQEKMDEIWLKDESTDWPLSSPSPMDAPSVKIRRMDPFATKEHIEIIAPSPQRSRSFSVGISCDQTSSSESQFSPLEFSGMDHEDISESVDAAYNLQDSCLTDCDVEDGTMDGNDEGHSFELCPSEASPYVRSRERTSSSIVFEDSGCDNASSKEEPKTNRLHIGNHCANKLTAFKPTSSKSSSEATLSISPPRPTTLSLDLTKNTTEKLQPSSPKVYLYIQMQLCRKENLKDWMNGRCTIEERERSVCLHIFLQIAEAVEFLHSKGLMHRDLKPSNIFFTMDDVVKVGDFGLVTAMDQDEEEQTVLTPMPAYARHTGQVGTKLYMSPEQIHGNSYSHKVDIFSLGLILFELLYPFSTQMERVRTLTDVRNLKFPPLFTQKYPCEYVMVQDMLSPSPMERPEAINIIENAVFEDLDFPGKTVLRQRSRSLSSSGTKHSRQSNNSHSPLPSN
Experimental: as §1

Chain of 140 purified human kinases (Homo sapiens, UniProt P50750) (P50750 whole entry): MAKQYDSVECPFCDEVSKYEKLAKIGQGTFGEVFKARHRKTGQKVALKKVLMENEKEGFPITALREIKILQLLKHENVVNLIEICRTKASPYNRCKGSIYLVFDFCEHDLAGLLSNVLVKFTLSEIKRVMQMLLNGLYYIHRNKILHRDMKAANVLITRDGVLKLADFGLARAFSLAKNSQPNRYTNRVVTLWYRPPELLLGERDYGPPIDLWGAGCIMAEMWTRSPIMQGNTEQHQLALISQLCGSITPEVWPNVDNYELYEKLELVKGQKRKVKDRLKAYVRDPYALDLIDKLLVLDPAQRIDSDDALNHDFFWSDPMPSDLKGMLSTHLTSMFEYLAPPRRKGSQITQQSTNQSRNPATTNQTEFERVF
Chain of 140 purified human kinases (Homo sapiens, UniProt O43353) (O43353 whole entry): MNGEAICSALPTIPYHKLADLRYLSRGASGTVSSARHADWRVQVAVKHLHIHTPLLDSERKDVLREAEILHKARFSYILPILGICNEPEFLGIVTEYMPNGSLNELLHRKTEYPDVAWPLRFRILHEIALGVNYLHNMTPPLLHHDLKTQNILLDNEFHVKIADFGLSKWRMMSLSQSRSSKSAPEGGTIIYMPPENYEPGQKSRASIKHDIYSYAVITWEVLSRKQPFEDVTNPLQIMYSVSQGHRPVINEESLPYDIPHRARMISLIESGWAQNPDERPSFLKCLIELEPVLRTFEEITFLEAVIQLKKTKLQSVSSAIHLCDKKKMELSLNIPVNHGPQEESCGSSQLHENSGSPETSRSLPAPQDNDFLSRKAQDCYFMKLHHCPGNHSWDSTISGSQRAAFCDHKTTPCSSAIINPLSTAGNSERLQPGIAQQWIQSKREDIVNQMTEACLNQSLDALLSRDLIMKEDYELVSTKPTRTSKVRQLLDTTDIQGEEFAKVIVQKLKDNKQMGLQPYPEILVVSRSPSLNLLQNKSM
Chain of 140 purified human kinases (Homo sapiens, UniProt P49137) (P49137 whole entry): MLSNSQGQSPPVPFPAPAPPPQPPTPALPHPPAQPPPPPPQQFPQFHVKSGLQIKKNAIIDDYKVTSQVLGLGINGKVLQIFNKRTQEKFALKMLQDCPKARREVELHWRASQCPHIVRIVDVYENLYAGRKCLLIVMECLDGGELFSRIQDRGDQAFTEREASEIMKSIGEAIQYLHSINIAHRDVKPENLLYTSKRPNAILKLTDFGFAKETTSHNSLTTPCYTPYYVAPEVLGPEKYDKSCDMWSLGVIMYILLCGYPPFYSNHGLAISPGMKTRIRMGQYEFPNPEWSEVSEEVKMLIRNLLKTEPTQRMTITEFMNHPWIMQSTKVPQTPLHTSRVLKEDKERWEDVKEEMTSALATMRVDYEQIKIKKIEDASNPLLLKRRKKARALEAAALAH

[Cu+2].[Cu+2].[Cu+2].c1ccc(-c2csc(NCCN(CCNc3nc(-c4ccccn4)cs3)CCNc3nc(-c4ccccn4)cs3)n2)nc1.c1ccc(-c2csc(NCCN(CCNc3nc(-c4ccccn4)cs3)CCNc3nc(-c4ccccn4)cs3)n2)nc1 [[L2Cu3]6+]
% Inhibition Run 1 [1]: 94.1%
% Inhibition Run 2 [1]: 94%
% Inhibition, Mean [1]: 94%
mean % activity [1]: 6%
% activity ([1]; Run 1): 5.9%
% activity ([1]; Run 2): 6%
% Activity inhibition Mean ([1]; 10 µM): 94.1%
% Activity inhibition Run 1 ([1]; 10 µM): 94.1%
% Activity inhibition Run 2 ([1]; 10 µM): 94%
% Activity remaining Run 1 ([1]; 10 µM): 5.90%
% Activity remaining Run 2 ([1]; 10 µM): 6.00%
% Activation, Mean value ([2]; CDK9-Cyclin T1): 18%
% Inhibition Run 1 ([2]; CDK9-Cyclin T1): -1.8%
% Inhibition Run 2 ([2]; CDK9-Cyclin T1): -34.5%
% Inhibition, Mean ([2]; CDK9-Cyclin T1): -18%
mean % activity ([2]; CDK9-Cyclin T1): 118%
% activity ([2]; CDK9-Cyclin T1, Run 1): 101.8%
% activity ([2]; CDK9-Cyclin T1, Run 2): 134.5%
% Activity Run 1 ([2]; CDK9-Cyclin T1, 10 µM): 101.80%
% Activity Run 2 ([2]; CDK9-Cyclin T1, 10 µM): 134.50%
% Inhibition Run 1 ([3]; RIPK2): 16.3%
% Inhibition Run 2 ([3]; RIPK2): 2.5%
% Inhibition, Mean ([3]; RIPK2): 9%
mean % activity ([3]; RIPK2): 91%
% activity ([3]; RIPK2, Run 1): 83.7%
% activity ([3]; RIPK2, Run 2): 97.5%
% Inhibition Run 1 ([4]; MAPKAP-K2): 97.8%
% Inhibition Run 2 ([4]; MAPKAP-K2): 98.1%
% Inhibition, Mean ([4]; MAPKAP-K2): 98%
mean % activity ([4]; MAPKAP-K2): 2%
% activity ([4]; MAPKAP-K2, Run 1): 2.2%
% activity ([4]; MAPKAP-K2, Run 2): 1.9%
% Activity inhibition Mean ([4]; MAPKAP-K2, 10 µM): 97.9%
% Activity inhibition Run 1 ([4]; MAPKAP-K2, 10 µM): 97.8%
% Activity inhibition Run 2 ([4]; MAPKAP-K2, 10 µM): 98.1%
% Activity remaining Run 1 ([4]; MAPKAP-K2, 10 µM): 2.20%
% Activity remaining Run 2 ([4]; MAPKAP-K2, 10 µM): 1.90%
% Inhibition Run 1 ([5]; EIF2AK3): 39.9%
% Inhibition Run 2 ([5]; EIF2AK3): 30.4%
% Inhibition, Mean ([5]; EIF2AK3): 35%
mean % activity ([5]; EIF2AK3): 65%
% activity ([5]; EIF2AK3, Run 1): 60.1%
% activity ([5]; EIF2AK3, Run 2): 69.6%

CC(=O)[O-].CC(=O)[O-].CC(=O)[O-].CC(=O)[O-].CC(=O)[O-].CC(=O)[O-].[Zn+2].[Zn+2].[Zn+2].c1ccc(-c2csc(NCCN(CCNc3nc(-c4ccccn4)cs3)CCNc3nc(-c4ccccn4)cs3)n2)nc1.c1ccc(-c2csc(NCCN(CCNc3nc(-c4ccccn4)cs3)CCNc3nc(-c4ccccn4)cs3)n2)nc1 [[L2Zn3]6+]
% Inhibition, Mean [1]: 30%
mean % activity [1]: 70%
% activity ([1]; duplicate runs): 58% and 82%
% Activation, Mean value ([2]; CDK9-Cyclin T1): 6%
% Inhibition, Mean ([2]; CDK9-Cyclin T1): -6%
mean % activity ([2]; CDK9-Cyclin T1): 106%
% activity ([2]; CDK9-Cyclin T1, duplicate runs): 96% and 117%
% Inhibition, Mean ([3]; RIPK2): 5.55%
% Inhibition, Run 1 / Run 2 ([3]; RIPK2): 8% and 3%
mean % activity ([3]; RIPK2): 94%
% activity ([3]; RIPK2, duplicate runs): 92% and 97%
% Inhibition, Mean ([4]; MAPKAP-K2): 41%
% Inhibition, Run 1 / Run 2 ([4]; MAPKAP-K2): 47% and 35%
mean % activity ([4]; MAPKAP-K2): 60%
% activity ([4]; MAPKAP-K2, duplicate runs): 54% and 66%
% Inhibition, Mean ([5]; EIF2AK3): 37%
% Inhibition, Run 1 / Run 2 ([5]; EIF2AK3): 45% and 29%
mean % activity ([5]; EIF2AK3): 63%
% activity ([5]; EIF2AK3, duplicate runs): 55% and 71%

Reference: PMC8222254, “Self-assembly of an anion receptor with metal-dependent kinase inhibition and potent in vitro anti-cancer properties” (Nature Communications, 2021)
